{"source": "patent US8444972B2", "about": "“Antitumor antibodies, proteins, and uses thereof” (University of Massachusetts, priority 1999, dated 2013)", "system": "E710.2.3", "test": "Homotypic aggregation assay", "data": [{"substance": "Paraformaldehyde", "values": [{"measurement": "HOMOTYPIC ADHESION induced by DMF10.62.3 in presence of chemical", "value": "inhibited"}]}]}
